According to the supplement of paper PMC10307832:

Columns and labels:
Assay in all cases: relative viability (nuclei count vs DMSO), 5 days (fraction); higher = more cells survive
Tosedostat + Trametinib = compound: CC(C)C[C@@H](C(=O)N[C@H](C(=O)OC1CCCC1)c1ccccc1)[C@H](O)C(=O)NO [Tosedostat] + CC(=O)Nc1cccc(-n2c(=O)n(C3CC3)c(=O)c3c(Nc4ccc(I)cc4F)n(C)c(=O)c(C)c32)c1 [Trametinib] (partner 0.02 µM)
Summary of the method: (§1)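 Lung cancer cell lines, seeded in 1536-well plates, were treated the following day by pin tool with a single drug or with five library-drug doses (not always all listed) in √10 steps on top of a fixed anchor-drug dose. Cells were fixed and nuclei stained in one step after 5 days, and nuclei were counted. Relative viability is the nuclei count for treated wells divided by that for vehicle wells, reported as medians of duplicate plates.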

Tosedostat + Pictilisib = compound: CC(C)C[C@@H](C(=O)N[C@H](C(=O)OC1CCCC1)c1ccccc1)[C@H](O)C(=O)NO [Tosedostat] + CS(=O)(=O)N1CCN(Cc2cc3nc(-c4cccc5[nH]ncc45)nc(N4CCOCC4)c3s2)CC1 [Pictilisib] (partner 1 µM)
Summary of the method: as §1

Tosedostat + AZD7762 = compound: CC(C)C[C@@H](C(=O)N[C@H](C(=O)OC1CCCC1)c1ccccc1)[C@H](O)C(=O)NO [Tosedostat] + NC(=O)Nc1cc(-c2cccc(F)c2)sc1C(=O)N[C@H]1CCCNC1 [AZD7762] (partner 0.2 µM)
Summary of the method: as §1

[1] = compound: CC1=NN=C(O1)C2=NN=C(C=C2)N3CCC(CC3)OC4=C(C=CC(=C4)F)Cl + N=C(N)NC(=N)NCCc1ccccc1 [Phenformin] (partner 250 µM)
Summary of the method: as §1

Cell Line	relative viability (Tosedostat + Trametinib; first compound 0.02 µM)	relative viability (Tosedostat + Trametinib; first compound 0.06325 µM)	relative viability (Tosedostat + Trametinib; first compound 0.2 µM)	relative viability (Tosedostat + Trametinib; first compound 0.6325 µM)	relative viability (Tosedostat + Trametinib; first compound 2 µM)	relative viability (Tosedostat + Pictilisib; first compound 0.02 µM)	relative viability (Tosedostat + Pictilisib; first compound 0.06325 µM)	relative viability (Tosedostat + Pictilisib; first compound 0.2 µM)	relative viability (Tosedostat + Pictilisib; first compound 0.6325 µM)	relative viability (Tosedostat + Pictilisib; first compound 2 µM)	relative viability (Tosedostat + AZD7762; first compound 0.02 µM)	relative viability (Tosedostat + AZD7762; first compound 0.06325 µM)	relative viability (Tosedostat + AZD7762; first compound 0.2 µM)	relative viability (Tosedostat + AZD7762; first compound 0.6325 µM)	relative viability (Tosedostat + AZD7762; first compound 2 µM)	relative viability ([1]; first compound 0.253 µM)	relative viability ([1]; first compound 0.8 µM)	relative viability ([1]; first compound 2.53 µM)	relative viability ([1]; first compound 8 µM)
HARA	0.85	0.636	0.91	0.745	0.631	0.375	0.432	0.314	0.376	0.348	0.41	0.459	0.261	0.477	0.262	0.306	0.211	0.334	0.266
NCI-H1993	0.501	0.61	0.535	0.498	0.504	0.818	0.863	1.01	0.84	0.688	0.678	0.64	0.741	0.556	0.493	0.553	0.481	0.651	0.509
HCC-78	0.729	0.722	0.664	0.795	0.659	0.202	0.226	0.212	0.221	0.197	0.355	0.771	0.65	0.738	0.791	0.619	0.59	0.541	0.497
NCI-H647	0.452	0.485	0.425	0.622	0.515	0.563	0.444	0.553	0.429	0.493	0.664	0.454	0.368	0.366	0.398	0.441	0.446	0.408	0.2
NCI-H1355	0.344	0.388	0.44	0.386	0.406	0.449	0.441	0.352	0.329	0.354	0.698	0.703	0.72	0.606	0.621	0.405	0.37	0.446	0.411
NCI-H2347	0.297	0.295	0.33	0.262	0.321	0.659	0.662	0.554	0.771	0.552	0.631	0.821	0.863	0.745	0.682		0.382	0.493	0.359
LC-2-ad	0.971	0.893	0.885	0.917	0.967	0.269	0.429	0.661	0.458	0.455	0.929	0.85	0.873	0.8	0.918	0.496	0.489	0.51	0.472
NCI-H1793	0.507	0.49	0.445	0.437	0.448	0.484	0.31	0.507	0.403	0.329	0.458	0.584	0.546	0.231	0.338	0.402	0.385	0.37	0.315
PC-3 [JPC-3]	0.752	0.629	0.733	0.614	0.514	0.756	0.771	0.602	0.576	0.501	0.752	0.747	0.746	0.647	0.54	0.433	0.406	0.426	0.412
NCI-H1755	0.782	0.837	0.813	0.869	0.744	0.461	0.489	0.38	0.376	0.276	0.43	0.462	0.398	0.407	0.347	0.567	0.565	0.523	0.56
NCI-H23	0.426	0.329	0.359	0.321	0.284	0.523	0.466	0.48	0.451	0.324	0.31	0.248	0.232	0.202	0.253	0.829		0.729	0.709
NCI-H1915	0.295	0.313	0.292	0.3	0.283	1.24	0.955	1	0.815	0.838	0.685	0.681	0.785	0.612	0.54	0.377	0.287	0.332	0.243
NCI-H2405	0.652	0.657	0.79	0.699	0.614	0.578	0.499	0.478	0.467	0.445	0.817	0.744	0.718	0.652	0.715	0.406	0.383	0.37	0.328
EMC-BAC-2	0.942	0.849	0.83	0.727	0.675	0.614	0.544	0.504	0.544	0.526	1.09	1.02	1.1	1.07	0.859	0.594	0.479	0.495	0.517
NCI-H2087	0.181	0.17	0.172	0.228	0.132	1.09	0.791	0.946	0.529	0.684	1.52	1.31	1.22	1.2	1.24	0.425	0.267	0.387	0.341
NCI-H727	0.398	0.37	0.413	0.412	0.376	0.36	0.267	0.276	0.373	0.29	0.667	0.559	0.65	0.669	0.53	0.613		0.496	0.482
PC-14	0.856	0.758	0.781	0.67	0.531	0.789	0.647	0.555	0.385	0.458	0.434	0.352	0.314	0.273	0.0971	0.656		0.463	0.567
